Literature values, collected in patent US6761903B2, “Clear oil-containing pharmaceutical compositions containing a therapeutic agent” (Lipocine, Inc., priority 1999, dated 2004).
Where two headings read alike, the source gives them in different places.

[1] = water having a pH at about 7 and below

| Compound | solubility in water [1] | solubility in water |
| --- | --- | --- |
| C[C@H](CCC(=O)O)[C@H]1CC[C@H]2[C@@H]3[C@H](O)C[C@@H]4C[C@H](O)CC[C@]4(C)[C@H]3CC[C@]12C [CDCA, chenodeoxycholic acid] | practically insoluble | – |
| C[C@H](CCC(=O)O)[C@H]1CC[C@H]2[C@@H]3[C@@H](O)C[C@@H]4C[C@H](O)CC[C@]4(C)[C@H]3CC[C@]12C [UDCA, ursodeoxycholic acid] | practically insoluble | – |
| CCCCCCCC/C=C\CCCCCCCC(=O)OCC(O)CO (stereo not drawn) [glycerol monooleate] | – | practically water insoluble |
